Source: ChEMBL document CHEMBL3853343, “Discovery of novel 2',4'-dimethyl-[4,5'-bithiazol]-2-yl amino derivatives as orally bioavailable TRPV4 antagonists for the treatment of pain: Part 2” (Bioorg Med Chem Lett, 2016)

Experiments:
[1] = Oral bioavailability in guinea pig at 20 mg/kg; assay type: ADME, organism-based, Cavia porcellus; settings: in vivo
[2] = Tmax in rat at 1 mg/kg, po; assay type: ADME, organism-based; settings: in vivo
[3] = Plasma concentration in Dunkin-Hartley guinea pig complete Freund's adjuvant-induced mechanical hyperalgesia model at 1 mg/kg, po after 5 hrs; assay type: ADME, organism-based, Cavia porcellus
[4] = AUC in rat at 1 mg/kg, po; assay type: ADME, organism-based; settings: in vivo
[5] = Metabolic stability in human hepatocytes assessed as parent compound remaining after 1 hr; assay type: ADME, cell-based, Hepatocyte; settings: read-out: Stability
[6] = Antagonist activity at guinea pig TRPV4 assessed as inhibition of hypotonicity-induced activation; design: species or system Cavia porcellus
Cavia porcellus [7] = experiment: Analgesic activity in Dunkin-Hartley guinea pig complete Freund's adjuvant-induced mechanical hyperalgesia model assessed as reversal in paw withdrawal threshold at 1 mg/kg, po after 5 hrs relative to control; assay type: functional
[8] = Metabolic stability in guinea pig hepatocytes assessed as parent compound remaining after 1 hr; assay type: ADME, cell-based, Cavia porcellus, Hepatocyte; settings: read-out: Stability
Cytochrome P450 1A2 = target: T1, Cytochrome P450 1A2 (Homo sapiens, UniProt P05177); experiment: Inhibition of CYP1A2 (unknown origin); assay type: ADME
T1 sequence (P05177 whole entry): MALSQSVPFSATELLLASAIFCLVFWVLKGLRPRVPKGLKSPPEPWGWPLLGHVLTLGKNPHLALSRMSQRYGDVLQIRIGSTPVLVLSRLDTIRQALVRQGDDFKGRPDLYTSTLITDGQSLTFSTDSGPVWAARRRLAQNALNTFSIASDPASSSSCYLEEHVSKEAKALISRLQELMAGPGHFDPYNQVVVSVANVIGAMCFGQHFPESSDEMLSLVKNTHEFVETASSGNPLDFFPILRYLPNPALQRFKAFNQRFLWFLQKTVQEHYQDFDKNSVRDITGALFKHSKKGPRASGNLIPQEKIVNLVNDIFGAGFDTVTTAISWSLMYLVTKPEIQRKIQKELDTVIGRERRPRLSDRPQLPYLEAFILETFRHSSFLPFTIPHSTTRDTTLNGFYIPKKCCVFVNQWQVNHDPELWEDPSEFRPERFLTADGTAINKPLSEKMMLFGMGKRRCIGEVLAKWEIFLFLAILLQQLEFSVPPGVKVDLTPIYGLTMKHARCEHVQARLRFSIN

[9] = Volume of distribution at steady state in guinea pig at 1 mg/kg, iv; assay type: ADME, organism-based, Cavia porcellus; settings: in vivo, read-out: Vdss
Cavia porcellus [10] = experiment: Analgesic activity in Dunkin-Hartley guinea pig complete Freund's adjuvant-induced mechanical hyperalgesia model assessed as reversal in paw withdrawal threshold at 10 mg/kg, po after 5 hrs relative to control; assay type: functional
Rattus norvegicus [11] = experiment: Analgesic activity in rat assessed as reversal of complete Freund's adjuvant-induced mechanical hyperalgesia at 30 mg/kg, po after 5 hrs relative to control; assay type: functional
[12] = AUC in guinea pig at 20 mg/kg, po; assay type: ADME, organism-based, Cavia porcellus; settings: in vivo
[13] = Half life in guinea pig at 1 mg/kg, iv; assay type: ADME, organism-based, Cavia porcellus; settings: in vivo
[14] = Stability in human liver microsomes assessed as parent compound remaining after 30 mins in presence or absence of NADPH; assay type: ADME, microsome; settings: read-out: Stability
Rattus norvegicus [15] = experiment: Analgesic activity in rat assessed as reversal of complete Freund's adjuvant-induced mechanical hyperalgesia at 10 mg/kg, po after 5 hrs relative to control; assay type: functional
Rattus norvegicus [16] = experiment: Analgesic activity in rat assessed as reversal of complete Freund's adjuvant-induced mechanical hyperalgesia at 30 mg/kg, po after 1 hr relative to control; assay type: functional
[17] = target: T2, Transient receptor potential cation channel subfamily V member 4 (Rattus norvegicus, UniProt Q9ERZ8); experiment: Antagonist activity at rat TRPV4 assessed as inhibition of hypotonicity-induced activation
[18] = Plasma concentration in Dunkin-Hartley guinea pig complete Freund's adjuvant-induced mechanical hyperalgesia model at 3 mg/kg, po after 5 hrs; assay type: ADME, organism-based, Cavia porcellus
Rattus norvegicus [19] = experiment: Analgesic activity in rat assessed as reversal of complete Freund's adjuvant-induced mechanical hyperalgesia at 30 mg/kg, po after 3 hrs relative to control; assay type: functional
[20] = Metabolic stability in rat hepatocytes assessed as parent compound remaining after 1 hr; assay type: ADME, cell-based, Hepatocyte; settings: read-out: Stability
[21] = Stability in rat liver microsomes assessed as parent compound remaining after 30 mins in presence or absence of NADPH; assay type: ADME, microsome; settings: read-out: Stability
Cavia porcellus [22] = experiment: Analgesic activity in Dunkin-Hartley guinea pig complete Freund's adjuvant-induced mechanical hyperalgesia model assessed as reversal in paw withdrawal threshold at 3 mg/kg, po after 5 hrs relative to control; assay type: functional
[23] = Protein binding in rat; assay type: ADME; settings: read-out: PB
[24] = Half life in rat at 0.5 mg/kg, iv; assay type: ADME, organism-based; settings: in vivo
Rattus norvegicus [25] = experiment: Analgesic activity in rat assessed as reversal of complete Freund's adjuvant-induced mechanical hyperalgesia at 10 mg/kg, po after 3 hrs relative to control; assay type: functional
[26] = Plasma concentration in Dunkin-Hartley guinea pig complete Freund's adjuvant-induced mechanical hyperalgesia model at 10 mg/kg, po after 5 hrs; assay type: ADME, organism-based, Cavia porcellus
Salmonella typhimurium = experiment: Genotoxicity in Salmonella typhimurium by Ames test; assay type: toxicity, organism-based; settings: salmonella enterica subsp. enterica serovar typhimurium
[27] = Total clearance in rat at 0.5 mg/kg, iv; assay type: ADME, organism-based; settings: in vivo
[28] = Protein binding in human; assay type: ADME; settings: read-out: PB
Cytochrome P450 2C9 = Cytochrome P450 2C9 (Homo sapiens, UniProt P11712); experiment: Inhibition of CYP2C9 (unknown origin); assay type: ADME
Cytochrome P450 2C19 = Cytochrome P450 2C19 (Homo sapiens, UniProt P33261); experiment: Inhibition of CYP2C19 (unknown origin); assay type: ADME
[29] = Total clearance in guinea pig at 1 mg/kg, iv; assay type: ADME, organism-based, Cavia porcellus; settings: in vivo
Cytochrome P450 2D6 = Cytochrome P450 2D6 (Homo sapiens, UniProt P10635); experiment: Inhibition of CYP2D6 (unknown origin); assay type: ADME
[30] = Tmax in guinea pig at 20 mg/kg, po; assay type: ADME, organism-based, Cavia porcellus; settings: in vivo
Rattus norvegicus [31] = experiment: Analgesic activity in rat assessed as reversal of complete Freund's adjuvant-induced mechanical hyperalgesia at 10 mg/kg, po after 1 hr relative to control; assay type: functional
[32] = Volume of distribution at steady state in rat at 0.5 mg/kg, iv; assay type: ADME, organism-based; settings: in vivo, read-out: Vdss
Cytochrome P450 3A4 = Cytochrome P450 3A4 (Homo sapiens, UniProt P08684); experiment: Inhibition of CYP3A4 (unknown origin); assay type: ADME
[33] = Cmax in guinea pig at 20 mg/kg, po measured 12 hrs post dose; assay type: ADME, organism-based, Cavia porcellus; design: dose 20 mg/kg, route oral; settings: in vivo
[34] = Protein binding in guinea pig; assay type: ADME, Cavia porcellus; settings: read-out: PB (converted)
[35] = Cmax in rat at 1 mg/kg, po; assay type: ADME, organism-based; design: dose 1 mg/kg, route oral; settings: in vivo
[36] = Oral bioavailability in rat at 1 mg/kg; assay type: ADME, organism-based; settings: in vivo
[37] = Antagonist activity at guinea pig TRPV4 assessed as inhibition of 4alpha-PDD-induced activation; design: species or system Cavia porcellus
[38] = target: T2, Transient receptor potential cation channel subfamily V member 4; experiment: Antagonist activity at rat TRPV4 assessed as inhibition of 4alpha-PDD-induced activation

T2 sequence (Q9ERZ8 whole entry): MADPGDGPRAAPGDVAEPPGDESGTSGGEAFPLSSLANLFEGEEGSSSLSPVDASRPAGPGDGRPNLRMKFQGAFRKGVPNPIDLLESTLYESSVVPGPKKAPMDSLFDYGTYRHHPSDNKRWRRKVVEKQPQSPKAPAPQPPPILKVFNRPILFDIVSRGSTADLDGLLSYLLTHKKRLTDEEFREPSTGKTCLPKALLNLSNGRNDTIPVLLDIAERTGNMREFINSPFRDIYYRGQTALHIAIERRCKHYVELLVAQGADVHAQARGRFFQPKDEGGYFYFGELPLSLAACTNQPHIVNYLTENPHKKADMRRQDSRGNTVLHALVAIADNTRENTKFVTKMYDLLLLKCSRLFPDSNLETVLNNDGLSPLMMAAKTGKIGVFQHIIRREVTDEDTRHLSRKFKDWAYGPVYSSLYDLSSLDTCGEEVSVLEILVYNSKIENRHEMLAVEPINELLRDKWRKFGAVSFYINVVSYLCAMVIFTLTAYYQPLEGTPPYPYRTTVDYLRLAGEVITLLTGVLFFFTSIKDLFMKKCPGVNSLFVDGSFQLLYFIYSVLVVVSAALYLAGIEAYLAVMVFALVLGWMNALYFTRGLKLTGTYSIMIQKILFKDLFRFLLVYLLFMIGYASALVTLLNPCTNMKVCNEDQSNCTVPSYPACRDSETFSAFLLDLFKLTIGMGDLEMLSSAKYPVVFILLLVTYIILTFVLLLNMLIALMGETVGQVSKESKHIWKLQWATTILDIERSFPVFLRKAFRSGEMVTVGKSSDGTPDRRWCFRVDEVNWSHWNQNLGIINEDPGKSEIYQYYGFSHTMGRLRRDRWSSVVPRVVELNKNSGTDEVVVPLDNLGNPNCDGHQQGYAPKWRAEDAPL
Sequence of Cytochrome P450 2C9 (P11712 whole entry): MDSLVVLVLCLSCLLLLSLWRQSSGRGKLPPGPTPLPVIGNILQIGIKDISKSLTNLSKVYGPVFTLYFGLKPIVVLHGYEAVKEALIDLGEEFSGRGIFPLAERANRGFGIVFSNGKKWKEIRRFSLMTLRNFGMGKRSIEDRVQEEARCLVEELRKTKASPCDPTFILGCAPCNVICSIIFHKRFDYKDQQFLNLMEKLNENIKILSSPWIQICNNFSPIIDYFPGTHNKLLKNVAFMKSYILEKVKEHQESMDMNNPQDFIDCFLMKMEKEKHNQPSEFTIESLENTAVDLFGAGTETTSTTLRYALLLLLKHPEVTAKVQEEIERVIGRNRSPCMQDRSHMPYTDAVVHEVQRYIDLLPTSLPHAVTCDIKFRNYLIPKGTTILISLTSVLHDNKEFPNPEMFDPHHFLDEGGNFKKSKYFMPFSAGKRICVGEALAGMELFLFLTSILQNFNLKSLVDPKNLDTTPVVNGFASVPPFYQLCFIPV
Sequence of Cytochrome P450 2C19 (P33261 whole entry): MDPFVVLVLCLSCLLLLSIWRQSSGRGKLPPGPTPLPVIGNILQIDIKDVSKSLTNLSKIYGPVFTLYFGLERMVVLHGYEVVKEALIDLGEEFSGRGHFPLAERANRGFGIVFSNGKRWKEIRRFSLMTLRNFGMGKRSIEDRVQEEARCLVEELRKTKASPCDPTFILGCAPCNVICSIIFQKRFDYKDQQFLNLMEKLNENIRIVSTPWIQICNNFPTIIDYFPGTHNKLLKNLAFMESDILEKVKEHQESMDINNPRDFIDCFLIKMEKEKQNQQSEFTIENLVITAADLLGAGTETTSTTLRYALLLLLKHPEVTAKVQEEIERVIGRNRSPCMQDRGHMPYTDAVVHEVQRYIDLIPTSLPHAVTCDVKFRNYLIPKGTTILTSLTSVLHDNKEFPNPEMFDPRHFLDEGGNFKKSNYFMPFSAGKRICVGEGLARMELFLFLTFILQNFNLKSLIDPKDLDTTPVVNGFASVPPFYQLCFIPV
Sequence of Cytochrome P450 3A4 (P08684 whole entry): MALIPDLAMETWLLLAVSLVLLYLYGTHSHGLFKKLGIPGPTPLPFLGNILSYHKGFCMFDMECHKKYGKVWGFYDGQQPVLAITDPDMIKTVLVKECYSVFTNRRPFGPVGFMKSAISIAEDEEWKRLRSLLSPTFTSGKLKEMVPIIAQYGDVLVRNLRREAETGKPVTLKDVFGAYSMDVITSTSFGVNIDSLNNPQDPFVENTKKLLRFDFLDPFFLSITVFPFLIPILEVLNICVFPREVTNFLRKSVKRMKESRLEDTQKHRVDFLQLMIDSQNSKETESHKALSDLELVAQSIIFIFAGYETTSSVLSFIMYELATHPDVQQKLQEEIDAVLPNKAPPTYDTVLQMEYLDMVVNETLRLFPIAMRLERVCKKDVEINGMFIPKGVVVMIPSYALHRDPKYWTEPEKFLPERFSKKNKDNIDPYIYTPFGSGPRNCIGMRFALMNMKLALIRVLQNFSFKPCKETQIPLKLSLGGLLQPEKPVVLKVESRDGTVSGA
Sequence of Cytochrome P450 2D6 (P10635 whole entry): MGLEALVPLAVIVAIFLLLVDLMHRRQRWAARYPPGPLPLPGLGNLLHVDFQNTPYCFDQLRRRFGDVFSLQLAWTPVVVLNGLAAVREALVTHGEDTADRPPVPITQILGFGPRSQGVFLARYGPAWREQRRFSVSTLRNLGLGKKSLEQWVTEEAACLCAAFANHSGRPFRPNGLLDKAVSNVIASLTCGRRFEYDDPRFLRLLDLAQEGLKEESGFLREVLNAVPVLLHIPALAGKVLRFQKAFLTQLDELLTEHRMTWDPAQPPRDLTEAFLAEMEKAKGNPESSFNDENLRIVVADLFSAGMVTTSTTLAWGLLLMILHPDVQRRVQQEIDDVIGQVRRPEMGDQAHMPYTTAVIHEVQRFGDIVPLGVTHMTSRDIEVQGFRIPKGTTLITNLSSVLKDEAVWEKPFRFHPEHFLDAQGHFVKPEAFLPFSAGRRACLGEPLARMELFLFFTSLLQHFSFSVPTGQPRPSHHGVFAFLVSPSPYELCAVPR

Work on `Cc1nc(C)c(-c2csc(Nc3ccc(C(=O)N4C5CCC4CN(c4ncc(C(F)(F)F)cn4)C5)cn3)n2)s1` yielded a bioavailability [1] of 44%, a Tmax [2] of 4 h and a concentration at 5 h [3] of 21.2 ng/mL. It also gave an AUC [4] of 900 ng·h/mL, a remaining at 1 h [5] of 91% and an IC50 [6] of 1.2 nM. For the same compound, the Activity (Cavia porcellus [7]) was 15.6%, the remaining at 1 h [8] was 73% and the INH (Cytochrome P450 1A2) was over 20 µM. For the same compound, the Vd [9] was 11 L/kg, the Activity (Cavia porcellus [10]) was 43.4% and the Activity (Rattus norvegicus [11]) was 23.5%. It also gave an AUC [12] of 4720 ng·h/mL, a half-life [13] of 4.2 h and a remaining at 0.5 h [14] of 94.8%. The Activity (Rattus norvegicus [15]) was 11%, the Activity (Rattus norvegicus [16]) was 22% and the IC50 [17] was 2.1 nM. It also gave a concentration at 5 h [18] of 69.4 ng/mL, an Activity (Rattus norvegicus [19]) of 29.7% and a remaining at 1 h [20] of 105%. It also gave a remaining at 0.5 h [21] of 69.2%, an Activity (Cavia porcellus [22]) of 30.6% and a fraction unbound [23] of under 0.001. For the same compound, the half-life [24] was 8.1 h, the Activity (Rattus norvegicus [25]) was 21.3% and the concentration at 5 h [26] was 209 ng/mL. For the same compound, the Activity (Salmonella typhimurium) was “Non-Toxic”, the clearance [27] was 7.22 mL/min/kg and the fraction unbound [28] was under 0.001. The INH (Cytochrome P450 2C9) was over 20 µM, the INH (Cytochrome P450 2C19) was over 20 µM and the clearance [29] was 31.1 mL/min/kg. The INH (Cytochrome P450 2D6) was over 20 µM, the Tmax [30] was 12 h and the Activity (Rattus norvegicus [31]) was 15.5%. For the same compound, the Vd [32] was 4.6 L/kg, the INH (Cytochrome P450 3A4) was over 20 µM and the Cmax [33] was 256 ng/mL. The fraction unbound [34] was 0.003, the Cmax [35] was 55.2 ng/mL and the bioavailability [36] was 37.9%. The IC50 [37] was 0.9 nM and the IC50 [38] was 8.6 nM.
